For this series the following is noted: Crystal; visual observation.

Structures are written as SMILES. Numbers after ± are expanded uncertainties.

As for `O=C(O)CC(O)C(=O)O` (stereo unspecified) [hydroxybutanedioic acid], the Normal melting temperature is 130.00 ± 0.5 °C.

Source of the values: the NIST ThermoML archive (doi:10.1016/j.jct.2015.02.002).
